Assay results from patent US6630075B2, “Use of fluorinated ketones in fire extinguishing compositions” (3M Innovative Properties Company, priority 1999, dated 2003).

Experiment: Micro-Cup Burner Test (extinguishing concentration; Mass Ratio Calculation vs HALON 1211)
Conditions: calculated from extinguishing volume % and molecular weight relative to HALON 1211 (165 g/mole)
Text: The Micro-Cup Burner Test is a laboratory test which measures the extinguishing ability of an agent based on the quantity of agent required to extinguish a fire under the following test conditions. The Micro-Cup Burner Test utilizes a quartz concentric-tube laminar-diffusion flame burner (micro-cup burner, of similar design to the above-described cup apparatus) aligned vertically with all flows upward. A fuel, typically propane unless otherwise specified, flows at 10.0 sccm (standard cubic centimeters per minute) through a 5-mm I.D. inner quartz tube which is centered in a 15-mm I.D. quartz chimney. The chimney extends 4.5 cm above the inner tube. Air flows through the annular region between the inner tube and the chimney at 1000 sccm. Prior to the addition of extinguishing composition, a visually stable flame is supported on top of the inner tube, and the resulting combustion products flow out through the chimney. An extinguishing composition to be evaluated is introduced into the air stream upstream of the burner. Liquid compositions are introduced by a syringe pump (which is calibrated to within 1%) and are volatilized in a heated trap. Gaseous compositions are introduced via a mass-flow controller to the air stream upstream from the burner. For consistency, the air-gaseous composition mixture then flows through the heated trap prior to its introduction to the flame burner. All gas flows are maintained by electronic mass-flow controllers which are calibrated to within 2%. The fuel is ignited to produce a flame and is allowed to burn for 90 seconds. After 90 seconds, a specific flow rate of composition is introduced, and the time required for the flame to be extinguished is recorded. The reported extinguishing concentrations are the recorded volume % of extinguishing composition in air required to extinguish the flame within an average time of 30 seconds or less.
The above-mentioned cup burner test measures the performance of an extinguishing composition by determining the minimum volume percent of composition in air required to extinguish a test fire. However, it is often desirable to directly compare the fire performance of an experimental extinguishing composition (e.g., a fluorinated ketone) against the performance of a state-of-the-art extinguishing composition, such as HALON™ 1211 fire extinguishing agent (CF2ClBr, a bromochlorofluorocarbon). One way to make such a comparison is to derive the mass ratio of experimental composition to HALON™ 1211 fire extinguishing agent from the volume percentages of each composition required for extinguishing. The mass ratio can be calculated by dividing the experimental composition's extinguishing volume percent by the HALON™ 1211 agent's extinguishing volume percent and multiplying the resulting quotient (which, according to the ideal gas law, also represents the ratio of mole percents) times the weight average molecular weight of the experimental composition divided by the molecular weight of HALON™ 1211 agent (165 g/mole).
In Comparative Example C1, the extinguishing concentration (volume % in air) of HALON™ 1211 fire extinguishing agent was determined as using the Micro-Cup Burner Test.
In Examples 1-16, the extinguishing concentration of several perfluorinated ketones was also determined using the Micro-Cup Burner Test. The mass ratio as compared to HALON™ 1211 fire extinguishing agent was then calculated using the Mass Ratio Calculation.
In Comparative Examples C2-C11, various fluorinated extinguishing compositions known in the art (hydrofluorocarbons, perfluorocarbons, hydrochlorofluorocarbons, hydrofluoroethers, and iodofluorocarbons) were evaluated for their extinguishing concentration, and subsequently their mass ratios were calculated with respect to HALON™ 1211 agent. […]

Compound | Mass Ratio to HALON™ 1211
O=C(C(=O)C(F)(C(F)(F)F)C(F)(F)F)C(F)(C(F)(F)F)C(F)(F)F [Example 11, 1,1,1,2,5,6,6,6-octafluoro-2,5-bis(trifluoromethyl)hexan-3,4-dione] | 2.57
FC(C(F)(F)F)C(F)(F)F [Comparative Example C5, 1,1,1,2,3,3,3-heptafluoropropane, reference compound] | 1.90
CC(=O)C(F)(C(F)(F)F)C(F)(F)F [Comparative Example C12, 3,4,4,4-tetrafluoro-3-trifluoromethylbutan-2-one, reference compound] | 2.42
O=C(C(F)(F)C(F)(F)C(F)(F)F)C(F)(F)C(F)(F)C(F)(F)F [Example 12, 1,1,1,2,2,3,3,5,5,6,6,7,7,7tetradecafluoroheptan-4-one] | 2.64
O=C(C(F)(F)F)C(F)(C(F)(F)F)C(F)(F)F [Example 5, 1,1,1,3,4,4,4-heptafluoro-3-trifluoromethylbutan-2-one] | 2.19
COC(F)(F)C(F)(F)C(F)(F)C(F)(F)F [Comparative Example C10, perfluorobutyl Methyl Ether, reference compound] | 2.52
FC(F)(F)C(F)(F)C(F)(F)C(F)(F)C(F)(F)C(F)(F)F [Comparative Example C8, perfluoro-n-hexane, reference compound] | 2.27
FC(F)(F)I [Comparative Example C2, iodotrifluoromethane, reference compound] | 1.14
O=C1C(F)(F)C(F)(F)C(F)(F)C(F)(F)C1(F)F [Example 15, decafluorocyclohexanone] | 2.80
O=C(C(F)(F)C(F)(F)C(F)(F)F)C(F)(C(F)(F)F)C(F)(F)F [Example 7, 1,1,1,2,4,4,5,5,6,6,6-undecafluoro-2-trifluoromethylhexan-3-one] | 2.21
FC(F)(Cl)Br [Comparative Example C1, bromochlorodifluoromethane, reference compound] | 1.00
O=C(C(F)(C(F)(F)F)C(F)(F)F)C(F)(C(F)(F)F)C(F)(F)F [Example 2, 1,1,1,2,4,5,5,5,6,6,6-octafluoro-2,4-bis(trifluoromethyl)pentan-3-one] | 2.03
O=C(C(F)(F)F)C(F)(F)C(F)(F)C(F)(F)C(F)(F)C(F)(F)C(F)(F)F [Example 4, 1,1,1,3,3,4,4,5,5,6,6,7,7,8,8,8-hexadecafluorooctan-2-one] | 2.17
COC(F)(F)C(F)(F)C(F)(F)F [Comparative Example C11, 1,1,1,2,2,3,3-heptafluoro-3-methoxypropane, reference compound] | 2.52
CC(=O)C(F)(F)C(F)(F)C(F)(F)C(F)(F)F [Comparative Example C13, perfluorobutyl methyl ketone, reference compound] | 2.77
O=C(C(F)(F)F)C(F)(F)C(F)(F)F [Example 13, 1,1,1,3,3,4,4,4-octafluorobutan-2-one] | 2.68
O=C(C(F)(F)C(F)(F)OC(F)(F)F)C(F)(C(F)(F)F)C(F)(F)F [Example 14, 1,1,2,2,4,5,5,5-octafluoro-1-trifluoromethoxy-4-trifluoromethylpentan-3-one] | 2.76
O=C(C(F)(F)C(F)(F)C(F)(F)C(F)(F)F)C(F)(C(F)(F)F)C(F)(F)F [Example 16, 1,1,1,2,4,4,5,5,6,6,7,7,7-tridecafluoro-2-trifluoromethylheptan-3-one] | 3.00
O=C(C(F)(F)C(F)(F)F)C(F)(F)C(F)(F)C(F)(F)F [Example 9, 1,1,1,2,2,4,4,5,5,6,6,6-dodecafluorohexan-3-one] | 2.39
COC(F)(C(F)(F)F)C(F)(C(F)(F)F)C(F)(F)F (stereo not shown) [Comparative Example C9, 1,1,1,2,3,4,4,4-octafluoro-3-trifluoromethyl-2-methoxybutane, reference compound] | 2.27
O=C(C(F)(F)C(F)F)C(F)(C(F)(F)F)C(F)(F)F [Example 6, 1,1,1,2,4,4,5,5-octafluoro-2-trifluoromethylpentan-3-one] | 2.20
O=C(C(F)(F)Cl)C(F)(C(F)(F)F)C(F)(F)F [Example 8, 1-chloro-1,1,3,4,4,4-hexafluoro-3-trifluoromethyl-butan-2-one] | 2.23
O=C(CC(=O)C(F)(F)F)C(F)(F)F [Example 10, 1,1,1,5,5,5-hexafluoropentan-2,4-dione] | 2.55
FC(F)(F)C(F)(F)C(F)(F)C(F)(F)F [Comparative Example C7, perfluoro-n-butane, reference compound] | 2.12
FC(F)(F)C(F)(F)C(F)(F)F [Comparative Example C6, perfluoro-n-propane, reference compound] | 2.05
FC(F)(F)CC(F)(F)F [Comparative Example C3, 1,1,1,3,3,3-hexafluoropropane, reference compound] | 1.61

Same assay, conditions: volume % in air required to extinguish the flame within an average time of 30 seconds or less; propane fuel

Compound | Ext. Conc. (vol %)
O=C(C(=O)C(F)(C(F)(F)F)C(F)(F)F)C(F)(C(F)(F)F)C(F)(F)F [Example 11, 1,1,1,2,5,6,6,6-octafluoro-2,5-bis(trifluoromethyl)hexan-3,4-dione] | 4.0
FC(C(F)(F)F)C(F)(F)F [Comparative Example C5, 1,1,1,2,3,3,3-heptafluoropropane, reference compound] | 6.6
CC(=O)C(F)(C(F)(F)F)C(F)(F)F [Comparative Example C12, 3,4,4,4-tetrafluoro-3-trifluoromethylbutan-2-one, reference compound] | 6.8
O=C(C(F)(F)C(F)(F)C(F)(F)F)C(F)(F)C(F)(F)C(F)(F)F [Example 12, 1,1,1,2,2,3,3,5,5,6,6,7,7,7tetradecafluoroheptan-4-one] | 4.3
O=C(C(F)(F)F)C(F)(C(F)(F)F)C(F)(F)F [Example 5, 1,1,1,3,4,4,4-heptafluoro-3-trifluoromethylbutan-2-one] | 4.9
COC(F)(F)C(F)(F)C(F)(F)C(F)(F)F [Comparative Example C10, perfluorobutyl Methyl Ether, reference compound] | 6.1
FC(F)(F)C(F)(F)C(F)(F)C(F)(F)C(F)(F)C(F)(F)F [Comparative Example C8, perfluoro-n-hexane, reference compound] | 4.0
FC(F)(F)I [Comparative Example C2, iodotrifluoromethane, reference compound] | 3.5
O=C1C(F)(F)C(F)(F)C(F)(F)C(F)(F)C1(F)F [Example 15, decafluorocyclohexanone] | 6.0
O=C(C(F)(F)C(F)(F)C(F)(F)F)C(F)(C(F)(F)F)C(F)(F)F [Example 7, 1,1,1,2,4,4,5,5,6,6,6-undecafluoro-2-trifluoromethylhexan-3-one] | 3.6
FC(F)(Cl)Br [Comparative Example C1, bromochlorodifluoromethane, reference compound] | 3.6
O=C(C(F)(C(F)(F)F)C(F)(F)F)C(F)(C(F)(F)F)C(F)(F)F [Example 2, 1,1,1,2,4,5,5,5,6,6,6-octafluoro-2,4-bis(trifluoromethyl)pentan-3-one] | 3.3
O=C(C(F)(F)F)C(F)(F)C(F)(F)C(F)(F)C(F)(F)C(F)(F)C(F)(F)F [Example 4, 1,1,1,3,3,4,4,5,5,6,6,7,7,8,8,8-hexadecafluorooctan-2-one] | 3.1
COC(F)(F)C(F)(F)C(F)(F)F [Comparative Example C11, 1,1,1,2,2,3,3-heptafluoro-3-methoxypropane, reference compound] | 7.5
CC(=O)C(F)(F)C(F)(F)C(F)(F)C(F)(F)F [Comparative Example C13, perfluorobutyl methyl ketone, reference compound] | 6.3
O=C(C(F)(F)F)C(F)(F)C(F)(F)F [Example 13, 1,1,1,3,3,4,4,4-octafluorobutan-2-one] | 7.4
O=C(C(F)(F)C(F)(F)OC(F)(F)F)C(F)(C(F)(F)F)C(F)(F)F [Example 14, 1,1,2,2,4,5,5,5-octafluoro-1-trifluoromethoxy-4-trifluoromethylpentan-3-one] | 4.3
O=C(C(F)(F)C(F)(F)C(F)(F)C(F)(F)F)C(F)(C(F)(F)F)C(F)(F)F [Example 16, 1,1,1,2,4,4,5,5,6,6,7,7,7-tridecafluoro-2-trifluoromethylheptan-3-one] | 4.3
O=C(C(F)(F)C(F)(F)F)C(F)(F)C(F)(F)C(F)(F)F [Example 9, 1,1,1,2,2,4,4,5,5,6,6,6-dodecafluorohexan-3-one] | 4.5
COC(F)(C(F)(F)F)C(F)(C(F)(F)F)C(F)(F)F (stereo not shown) [Comparative Example C9, 1,1,1,2,3,4,4,4-octafluoro-3-trifluoromethyl-2-methoxybutane, reference compound] | 4.5
O=C(C(F)(F)C(F)F)C(F)(C(F)(F)F)C(F)(F)F [Example 6, 1,1,1,2,4,4,5,5-octafluoro-2-trifluoromethylpentan-3-one] | 4.4
O=C(C(F)(F)Cl)C(F)(C(F)(F)F)C(F)(F)F [Example 8, 1-chloro-1,1,3,4,4,4-hexafluoro-3-trifluoromethyl-butan-2-one] | 4.7
O=C(CC(=O)C(F)(F)F)C(F)(F)F [Example 10, 1,1,1,5,5,5-hexafluoropentan-2,4-dione] | 7.3
FC(F)(F)C(F)(F)C(F)(F)C(F)(F)F [Comparative Example C7, perfluoro-n-butane, reference compound] | 5.3
FC(F)(F)C(F)(F)C(F)(F)F [Comparative Example C6, perfluoro-n-propane, reference compound] | 6.5
FC(F)(F)CC(F)(F)F [Comparative Example C3, 1,1,1,3,3,3-hexafluoropropane, reference compound] | 6.3
